System: SEM cells
Assay: cell viability relative to DMSO control; higher = less cytotoxic
Settings: 48 h
How it was run: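 NOMO1 or SEM cells were plated at 500 cells/well and P12-Ichikawa cells at 1000 cells/well in 1536-well plates (5 μl), after each leukemia line had been adapted for at least four passages in each medium. Pin dosing delivered library compounds in DMSO at 11 threefold concentrations, 47 μM to 0.79 nM. CellTiter-Glo One luminescence was read after 48 h at 37°C. Viability is reported as a per-plate percentage of DMSO wells, with cell-free wells as background.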

[1] = HPLM + 10% dialyzed FBS, 0.000781 µM
[2] = HPLM + 10% dialyzed FBS, 0.00234 µM
[3] = HPLM + 10% dialyzed FBS, 0.00702 µM
[4] = HPLM + 10% dialyzed FBS, 0.0211 µM
[5] = HPLM + 10% dialyzed FBS, 0.0632 µM
[6] = HPLM + 10% dialyzed FBS, 0.19 µM
[7] = HPLM + 10% dialyzed FBS, 0.569 µM
[8] = HPLM + 10% dialyzed FBS, 1.71 µM
[9] = HPLM + 10% dialyzed FBS, 5.12 µM
[10] = HPLM + 10% dialyzed FBS, 15.4 µM
[11] = HPLM + 10% dialyzed FBS, 46.1 µM
[12] = RPMI 5 mM glucose + 10% FBS, 0.000781 µM
[13] = RPMI 5 mM glucose + 10% FBS, 0.00234 µM
[14] = RPMI 5 mM glucose + 10% FBS, 0.00702 µM
[15] = RPMI 5 mM glucose + 10% FBS, 0.0211 µM
[16] = RPMI 5 mM glucose + 10% FBS, 0.0632 µM
[17] = RPMI 5 mM glucose + 10% FBS, 0.19 µM
[18] = RPMI 5 mM glucose + 10% FBS, 0.569 µM
[19] = RPMI 5 mM glucose + 10% FBS, 1.71 µM
[20] = RPMI 5 mM glucose + 10% FBS, 5.12 µM
[21] = RPMI 5 mM glucose + 10% FBS, 15.4 µM
[22] = RPMI 5 mM glucose + 10% FBS, 46.1 µM

Row | SMILES | cell viability [1] | cell viability [2] | cell viability [3] | cell viability [4] | cell viability [5] | cell viability [6] | cell viability [7] | cell viability [8] | cell viability [9] | cell viability [10] | cell viability [11] | cell viability [12] | cell viability [13] | cell viability [14] | cell viability [15] | cell viability [16] | cell viability [17] | cell viability [18] | cell viability [19] | cell viability [20] | cell viability [21] | cell viability [22] | cell viability (RPMI 5 mM glucose + 10% dialyzed FBS, 0.000781 µM) | cell viability (RPMI 5 mM glucose + 10% dialyzed FBS, 0.00234 µM) | cell viability (RPMI 5 mM glucose + 10% dialyzed FBS, 0.00702 µM) | cell viability (RPMI 5 mM glucose + 10% dialyzed FBS, 0.0211 µM) | cell viability (RPMI 5 mM glucose + 10% dialyzed FBS, 0.0632 µM) | cell viability (RPMI 5 mM glucose + 10% dialyzed FBS, 0.19 µM) | cell viability (RPMI 5 mM glucose + 10% dialyzed FBS, 0.569 µM) | cell viability (RPMI 5 mM glucose + 10% dialyzed FBS, 1.71 µM) | cell viability (RPMI 5 mM glucose + 10% dialyzed FBS, 5.12 µM) | cell viability (RPMI 5 mM glucose + 10% dialyzed FBS, 15.4 µM) | cell viability (RPMI 5 mM glucose + 10% dialyzed FBS, 46.1 µM)
1 | CC(C)(C)C1=NC2=C([NH]1)C3=CC=C(F)C=C3C4=C2\C=C/NC4=O | 118% | 114% | 130% | 130% | 125% | 116% | 111% | 89% | 38.8% | 32.1% | 50.1% | 96.8% | 116% | 141% | 115% | 126% | 138% | 114% | 98.6% | 37.2% | 18.1% | 32.3% |  |  |  |  |  |  |  |  |  |  | 
2 | Nc1cccc(-c2cc3c(Oc4cccc(O)c4)ncnc3[nH]2)c1 |  |  |  |  |  |  |  |  |  |  |  | 70.7% | 122% | 132% | 143% | 145% | 123% | 132% | 121% | 88.8% | 62.3% | 9.75% | 69.1% | 123% | 132% | 125% | 131% | 116% | 133% | 121% | 80.4% | 56% | 13.4%
3 | CN(C)C(=O)COC(=O)Cc1ccc(OC(=O)c2ccc(NC(=N)N)cc2)cc1 | 107% | 113% | 122% | 112% | 125% | 126% | 119% | 119% | 112% | 118% | 61.2% | 102% | 110% | 126% | 117% | 130% | 126% | 139% | 130% | 114% | 107% | 61.7% |  |  |  |  |  |  |  |  |  |  | 

From the supplement of paper PMC11451515
